Publication PMC3479139, “Diverse Small Molecule Inhibitors of Human Apurinic/Apyrimidinic Endonuclease APE1 Identified from a Screen of a Large Public Collection” (PLoS ONE, 2012)
pIC50: −log10 of the molar value. Where two headings read alike, the source gives them in different places.

What was measured:
E. coli Endo IV = target: T1, E. coli Endo IV (Escherichia coli, UniProt P0A6C1); experiment: E. coli Endo IV profiling counterscreen; format: biochemical; conditions: for pIC50: read-out: EndoIV IC50;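 for all read-outs here: selectivity counterscreen of candidate APE1 inhibitors against the bacterial endonuclease Endo IV, run in the same assay format as the primary APE1 high-throughput screen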
T1 construct: made in house
Excerpt: (§1) In order to screen out nonselective compounds, such as non-specific DNA binders and inhibitors of related enzymes, we used a miniaturized ThO DNA displacement assay and a counterscreen against the bacterial endonuclease E. coli Endo IV, respectively, following the previously published protocols [21].
To probe the selectivity of the candidate APE1 inhibitors, we tested them against E. coli EndoIV [36], employing the same assay as used in the HTS.

APE1 [1] = target: T2, APE1 (Homo sapiens, UniProt P27695); experiment: Gel-based radiotracer (32P) APE1 incision assay; format: biochemical; design: concentration or dose not given beside the values; conditions: percent incision shown; entries 1-112;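 note: APE1 incision reactions ran 5 min at 37 °C, with cleaved product and intact substrate resolved electrophoretically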
T2 construct: made in house
T2 sequence (P27695 whole entry): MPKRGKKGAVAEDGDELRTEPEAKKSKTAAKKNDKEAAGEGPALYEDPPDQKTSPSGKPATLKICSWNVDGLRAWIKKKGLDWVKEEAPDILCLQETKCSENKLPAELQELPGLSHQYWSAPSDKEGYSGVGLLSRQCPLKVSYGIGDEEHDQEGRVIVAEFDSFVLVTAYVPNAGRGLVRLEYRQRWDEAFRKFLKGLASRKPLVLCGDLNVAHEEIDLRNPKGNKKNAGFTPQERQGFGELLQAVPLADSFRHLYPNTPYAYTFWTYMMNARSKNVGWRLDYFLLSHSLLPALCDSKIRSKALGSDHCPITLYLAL

[2] = target: double-stranded 17-mer DNA fragment; experiment: ThO (Thiazole Orange) DNA displacement assay; format: binding;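 note: miniaturized displacement of the intercalating dye from unlabeled duplex DNA, used to flag nonspecific DNA binders, chiefly intercalators, groove binders may be missed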
Excerpt: The double-stranded 17-mer DNA fragment used in the ThO DNA binding assay was of the same sequence as the fluorogenic HTS substrate but carried no dye labels.
as §1
To detect screening hits that inhibit APE1 activity through non-specific DNA interactions, we employed a previously established miniaturized ThO dye displacement assay [21]. […] We note that the ThO assay reports primarily on DNA binders acting through intercalation, while potentially missing other types of DNA binders, such as those acting through the minor groove.

APE1 [3] = target: T2, APE1; experiment: Fluorogenic kinetic qHTS APE1 incision assay (primary screen and retest of cherrypicked samples); format: biochemical;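 note: purified APE1 cleaving a fluorophore/dark-quencher labelled 17-mer duplex DNA bearing a tetrahydrofuran AP site, fluorescence rise followed kinetically over the first 2 min, inhibition normalized to controls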
APE1 [4] = target: T2, APE1; experiment: Fluorescence polarization (FP) displacement assay of APE1 binding to AP-DNA probe; conditions: read-out: FP IC50;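 note: TAMRA 5′-labeled duplex DNA with THF abasic site (5 nM) and APE1 (20 nM), Mg2+-free buffer, 15 min at room temperature, inhibition seen as lowered polarization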
APE1 [5] = target: T2, APE1; experiment: Gel-based APE1 incision assay with fluorescence (TAMRA) detection; format: biochemical; conditions: estimated IC50, fluorophore detection; entries 113-223; read-out: F-PAGE Assay IC50
[6] = initial quantitative high-throughput screen, read-out: APE1 qHTS IC50
[7] = retest of cherrypicked sample, read-out: APE1 Retest IC50

CC(=O)Oc1cc2cccc(OC(C)=O)c(=O)c2c(OC(C)=O)c1OC(C)=O [MLS001049122]
pIC50 (E. coli Endo IV): < 4.24
Radiotracer Assay (%Activity) (APE1 [1]): 37%
pIC50 ([2]; read-out: ThO-DNA binding IC50): < 4.24
pIC50 (APE1 [3]; [6]): 6.40
pIC50 (APE1 [3]; [7]): 5.20
pIC50 (APE1 [4]): < 4.24

O=C1C=C(c2ccc3cc[nH]c3c2)C[C@@H](c2ccc3c(c2)OCO3)C1 [MLS001060910]
pIC50 (E. coli Endo IV): < 4.24
pIC50 (APE1 [5]): 5.49
pIC50 ([2]; read-out: ThO-DNA binding IC50): < 4.24
pIC50 (APE1 [3]; [6]): 4.92
pIC50 (APE1 [3]; [7]): 4.74
pIC50 (APE1 [4]): < 4.24

C[C@@]1(C(=O)O)NCCc2cc(O)c(O)cc21 [NCGC00024700]
pIC50 (E. coli Endo IV): < 4.24
Radiotracer Assay (%Activity) (APE1 [1]): 17.1%
pIC50 ([2]; read-out: ThO-DNA binding IC50): < 4.24
pIC50 (APE1 [3]; [6]): 5.74
pIC50 (APE1 [4]): < 4.24

CC(=O)[C@]1(O)Cc2c(O)c3c(c(O)c2[C@@H](O[C@H]2C[C@H](N)[C@H](O)[C@H](C)O2)C1)C(=O)c1ccccc1C3=O [NCGC00093976]
pIC50 (E. coli Endo IV): 4.60
Radiotracer Assay (%Activity) (APE1 [1]): 4.6%
ThO assay signal behaviour (autofluorescence interference) [2]: strong dose-dependent fluorescence signal increase
pIC50 (APE1 [3]; [6]): 4.70
pIC50 (APE1 [3]; [7]): 4.85
pIC50 (APE1 [4]): 5.49

CN(C)C(=O)Nc1ccc(Cl)c(Cl)c1 [NCGC00094525]
pIC50 (E. coli Endo IV): < 4.24
Radiotracer Assay (%Activity) (APE1 [1]): 36.6%
pIC50 ([2]; read-out: ThO-DNA binding IC50): < 4.24
pIC50 (APE1 [3]; [6]): 4.70
pIC50 (APE1 [3]; [7]): 4.35
pIC50 (APE1 [4]): < 4.24

CC(=O)OCC1=C(C(=O)[O-])N2C(=O)C(NC(=O)CCCC(N)C(=O)O)C2SC1.[Na+] (stereo not drawn) [NCGC00094863]
pIC50 (E. coli Endo IV): < 4.24
Radiotracer Assay (%Activity) (APE1 [1]): 41%
pIC50 ([2]; read-out: ThO-DNA binding IC50): < 4.24
pIC50 (APE1 [3]; [6]): 4.65
pIC50 (APE1 [4]): < 4.24

O=c1oc2c(O)c(O)cc3c(=O)oc4c(O)c(O)cc1c4c23 [NCGC00094975]
pIC50 (E. coli Endo IV): < 4.24
Radiotracer Assay (%Activity) (APE1 [1]): 2.4%
pIC50 ([2]; read-out: ThO-DNA binding IC50): 7.00
pIC50 (APE1 [3]; [6]): 8.00
pIC50 (APE1 [3]; [7]): 8.00
pIC50 (APE1 [4]): 4.50

NC(Cc1ccc(O)c(O)c1)C(=O)O (stereo not drawn) [NCGC00095195]
pIC50 (E. coli Endo IV): < 4.24
Radiotracer Assay (%Activity) (APE1 [1]): 28.3%
pIC50 ([2]; read-out: ThO-DNA binding IC50): < 4.24
pIC50 (APE1 [3]; [6]): 6.52
pIC50 (APE1 [3]; [7]): 7.00
pIC50 (APE1 [4]): < 4.24

Oc1cc(O)c2c(c1)OC(c1ccc(O)c(O)c1)C(O)C2 (stereo not drawn) [NCGC00095270]
pIC50 (E. coli Endo IV): < 4.24
Radiotracer Assay (%Activity) (APE1 [1]): 35.9%
pIC50 ([2]; read-out: ThO-DNA binding IC50): < 4.24
pIC50 (APE1 [3]; [6]): 5.49
pIC50 (APE1 [3]; [7]): 5.55
pIC50 (APE1 [4]): < 4.24

O=C1C=CC2=C3c4cc(O)c(O)cc4CC3(O)COC2=C1O (stereo not drawn) [NCGC00095664]
pIC50 (E. coli Endo IV): < 4.24
Radiotracer Assay (%Activity) (APE1 [1]): 4.1%
pIC50 ([2]; read-out: ThO-DNA binding IC50): 4.95
pIC50 (APE1 [3]; [6]): 7.00
pIC50 (APE1 [3]; [7]): 7.00
pIC50 (APE1 [4]): 4.80

O=c1c(O)c(Br)ccc2c(Br)c(O)c(O)c(O)c12 [NCGC00160279]
pIC50 (E. coli Endo IV): < 4.24
Radiotracer Assay (%Activity) (APE1 [1]): 37.9%
pIC50 ([2]; read-out: ThO-DNA binding IC50): 5.90
pIC50 (APE1 [3]; [6]): 5.96
pIC50 (APE1 [3]; [7]): 6.40
pIC50 (APE1 [4]): < 4.24

Cc1ccc2c(=O)c3ccccc3n(CCCN)c2c1C [NCGC00161415]
Concentration response against EndoIV (E. coli Endo IV): complete concentration response curves
Radiotracer Assay (%Activity) (APE1 [1]): 4.6%
pIC50 ([2]; read-out: ThO-DNA binding IC50): 4.85
pIC50 (APE1 [3]; [6]): 5.35
pIC50 (APE1 [3]; [7]): 5.00
pIC50 (APE1 [4]): 5.89

CC(=O)N[C@H]1C(O[C@@H]2O[C@H](C[C@@H](O)[C@H]3O[C@@H](N4CCC(=O)NC4=O)[C@H](O)[C@@H]3O)[C@H](O)[C@H](O)[C@H]2NC(=O)/C=C/CCCCCCCCCCC(C)C)OC(CO)[C@@H](O)[C@@H]1O (stereo partly drawn) [NCGC00161652]
pIC50 (E. coli Endo IV): < 4.24
Radiotracer Assay (%Activity) (APE1 [1]): 26.5%
pIC50 ([2]; read-out: ThO-DNA binding IC50): < 4.24
pIC50 (APE1 [3]; [6]): 5.10
pIC50 (APE1 [3]; [7]): 5.60
pIC50 (APE1 [4]): 4.50

Cc1c2c(c(O)c3c(O)cccc13)C(=O)O[C@H]2C1C(N(C)C)C(O)=C(C(N)=O)C(=O)[C@H]1O (stereo partly drawn) [NCGC00163605]
pIC50 (E. coli Endo IV): < 4.24
Radiotracer Assay (%Activity) (APE1 [1]): 2.7%
ThO assay signal behaviour (autofluorescence interference) [2]: strong dose-dependent fluorescence signal increase
pIC50 (APE1 [3]; [6]): 5.70
pIC50 (APE1 [3]; [7]): 5.80
pIC50 (APE1 [4]): 5.66

COc1cc(O)c2c(c1)oc(=O)c1c3cc(O)c(O)cc3oc21 [NCGC00163667]
pIC50 (E. coli Endo IV): < 4.24
Radiotracer Assay (%Activity) (APE1 [1]): 8.4%
pIC50 ([2]; read-out: ThO-DNA binding IC50): 5.00
pIC50 (APE1 [3]; [6]): 5.00
pIC50 (APE1 [3]; [7]): 5.36
pIC50 (APE1 [4]): < 4.24

COc1cc(N(C)C)cc(CN(C)CCc2ccc([N+](=O)[O-])cc2)c1O [NCGC00165741]
pIC50 (E. coli Endo IV): < 4.24
Radiotracer Assay (%Activity) (APE1 [1]): 10.6%
pIC50 ([2]; read-out: ThO-DNA binding IC50): < 4.24
pIC50 (APE1 [3]; [6]): 5.49
pIC50 (APE1 [3]; [7]): 6.52
pIC50 (APE1 [4]): < 4.24

CCN(CC)c1ccc(C(=C2C=CC(=[N+](CC)Cc3cccc(S(=O)(=O)[O-])c3)C=C2)c2ccc(N(CC)Cc3cccc(S(=O)(=O)O)c3)cc2)cc1 [NCGC00166058]
Concentration response against EndoIV (E. coli Endo IV): complete concentration response curves
pIC50 (E. coli Endo IV): 4.55
Radiotracer Assay (%Activity) (APE1 [1]): 13.4%
pIC50 ([2]; read-out: ThO-DNA binding IC50): 4.45
pIC50 (APE1 [3]; [6]): 4.50
pIC50 (APE1 [3]; [7]): 4.60
pIC50 (APE1 [4]): 4.50

phthalocyanine tetrasulfonate hydrate [NCGC00165867]
Concentration response against EndoIV (E. coli Endo IV): complete concentration response curves
Radiotracer Assay (%Activity) (APE1 [1]): 6.2%
pIC50 ([2]; read-out: ThO dye displacement IC50): 6.20
pIC50 ([2]; read-out: ThO-DNA binding IC50): 6.22
pIC50 (APE1 [3]; [6]): 6.52
pIC50 (APE1 [3]; [7]): 7.22
pIC50 (APE1 [4]): 6.70
